“Also recorded” adds a separate entry of the source.
How the values were obtained:
Guinea pig hearts = test: Myocardial ischemia-reperfusion injury, Langendorff hearts ex vivo (CK, LDH, GSH:GSSG); conditions: for Creatine Kinase (CK) activity in perfusate: FIG. 6(a); for Lactate Dehydrogenase (LDH) activity in perfusate: FIG. 6(b); for GSH:GSSG ratio in whole heart tissue: FIG. 6(c)
Protocol: Adult male guinea pigs were anesthetized with pentobarbitone sodium (240 mg/kg) via intraperitoneal injection prior to excision of the heart. Guinea pig hearts were cannulated onto a Langendorff apparatus via the aorta and perfused retrogradely with Ca^2+ containing KHB comprising (in mM): 120 NaCl, 25 NaHCO3, 4.8 KCl, 2.2 MgSO4, 1.2 NaH2PO4, 11 glucose and 1.5 CaCl2 (pH=7.35 with O2/CO2 at 37° C.) at 37° C. for 30 min at a rate of 7 mL/min, followed by 30 min no-flow ischemia, then 30 min reperfusion as previously described.
Perfusates were collected 20 and 25 min pre-ischemia and 20 and 30 min following reperfusion. A single dose of 0.5-10 μM AID(S)-TAT, AID-TAT, peptide 6 or peptide 7 was added to Ca^2+-containing KHB solution just prior to reperfusion. Creatine Kinase (CK) and Lactate Dehydrogenase (LDH) activity was measured in perfusates collected pre- and post-ischemia, and post-ischemia values normalized to pre-ischemia values.
For each sample, 10 μL of perfusate was added to 100 μL CK enzyme reagent (CK NAC-activated diagnostic kit, Randox Laboratories) and the rate of increase in absorbance recorded over 15 min at 30° C. using a spectrophotometer (PowerWave XS, BioTek, 340 nm).
To determine LDH activity, 150 μL of each sample was mixed with 50 μL of LDH reagent (50 mM imidazole buffer, 375 μM NADH, pyruvate and 0.05% BSA, pH=7) and the rate of decrease in absorbance recorded over 15 min at 25° C. using a spectrophotometer (PowerWave XS, BioTek, 340 nm).
GSSG was calculated by subtracting GSH from total glutathione.

[1] = tested on: cTnI-G203S mutant myocytes; test: Flavoprotein oxidation response to BayK(−), cTnI-G203S myocytes (Example 10); type: cell-based, mouse; conditions: 0.5 μM peptide, 10 μM BayK(−), FIG. 10D
Protocol: In this experiment wt myocytes were pre-exposed to 0.1, 0.5 or 1 μM for 20 min and assessed changes in flavoprotein oxidation and ψm.
Measurement of mitochondrial flavoprotein oxidation: Flavoprotein autofluorescence was used to measure flavoprotein oxidation based on previously described methods (Yaniv Y, Juhaszova M, Lyashkov A E, Spurgeon H A, Sollott S J, Lakatta E G. Ca2+-regulated-cAMP/PKA signaling in cardiac pacemaker cells links ATP supply to demand. J Mol Cell Cardiol. 2011; 51(5):740-8). […] Fluorescent images were acquired at 1 min intervals with 200 ms exposure. Metamorph 6.3 (Version 7.10.3) was used to quantify the signal by manually tracing myocytes. […] Fluorescence values recorded over 5 min before and 5 min after addition of drugs were averaged and alterations in fluorescent ratios reported as the percentage increase from the basal average. FCCP (50 μM) and NaCN (40 mM) was added at the end of each experiment to achieve a respective maximal and minimal fluorescence value indicative of maximal and minimal flavoprotein oxidation.
The ICA-L agonist BayK(−) was used to activate the channel and assess mitochondrial function. […] FIG. 10 presents the mean+/−SEM of flavoprotein fluorescence from cTnI.2 wt and cTnI-G2035 mutant myocytes before and after exposure to 10 μM BayK(−) in the presence of 1 μM AID(S)-TAT, and increasing concentrations of variant peptides as indicated. […]

cTnI-G203S mice [2] = test: Myocardial fibrosis, Masson's Trichrome collagen volume fraction; type: in vivo, mouse; conditions: 5 μM, 3×/wk/5 wk from 20 weeks of age; versus cTnI-G203S AID(S)-TAT; FIG. 14
From the text: Following completion of treatment regimes, mouse hearts were extracted and prepared for Masson's Trichchrome staining based on previously described methods with minor modifications (Van De Vlekkert D, Machado E, d'Azzo A. Analysis of Generalized Fibrosis in Mouse Tissue Sections with Masson's Trichrome Staining. Bio Protoc. 2020; 10(10):e3629). Hearts were washed in PBS and fixed overnight in 10% buffered formalin saline (FSAL-5L; Hurst Scientific, AUS). After fixation, hearts were washed 3×10 min in PBS and incubated overnight in 30% sucrose solution (in PBS). […]
To observe the levels of cardiac fibrosis in mice, a minimum of 15 sections of microscopic fields for each animal were selected randomly for histological analysis. Images of heart sections were obtained using a Nikon upright light microscope (DS-Qi2, Japan) at 20× magnification and analysed using ImageJ (NIH). […]
Here we assessed the efficacy of treating 20-week-old pre-hypertrophic cTnI-G203S mice with 5 μM AID-TAT variant peptides (3×/wk/5 wk) on the development and progression of fibrosis. […] Images were acquired using a Nikon Upright Microscope and collagen volume fraction (%) was determined using ImageJ colour thresholding. […] Values reported as mean±SEM; P values compared with cTnI-G203S AID(S)-TAT as determined by the Kruskal-Wallis test.

cTnI-G203S mice [3] = test: Heart weight to body weight ratio of treated cTnI-G203S mice; type: in vivo, mouse; conditions: 5 μM, 3×/wk/5 wk; compared with cTnI-G203S AID(S)-TAT; FIG. 16
Protocol: The effect of treatment of the mice with peptides on the development of hypertrophy assessed as changes in heart weight to body weight ratio was also examined. […] FIG. 16 presents the mean±SEM of heart weight to body weight ratio measurements from wt and cTnI-G203S mice treated with 10 μM AID(S)-TAT, 10 μM AID-TAT, 5 μM AIDP7-TAT, 5 μM AIDP14-TAT, 5 μM AIDP15-TAT or 5 μM AIDP16-TAT. n=number of mice as indicated. *P<0.05, **P<0.01 compared with cTnI-G203S AID(S)-TAT as determined by Kruskal-Wallis tests.

[4] = 0.5 μM peptide added just prior to reperfusion
[5] = 1 μM peptide added just prior to reperfusion

Substance: AIDP7-TAT: QQQEEDLKGYLDWITQAE with TAT sequence
- Creatine Kinase (CK) activity in perfusate (Guinea pig hearts; [4]): reduced compared to the AID(S)-TAT peptide; also recorded: reduced in both P7-TAT (1 μM) and P7-TAT (0.5 μM) compared to the P6-TAT peptide; also recorded: at least as effective as AID-TAT (1 μM)
- Lactate Dehydrogenase (LDH) activity in perfusate (Guinea pig hearts; [4]): reduced compared to the AID(S)-TAT peptide; also recorded: reduced LDH at least as well as AID-TAT (1 μM)
- GSH:GSSG ratio in whole heart tissue (Guinea pig hearts; 0.5 μM peptide): statistically significant increase in the GSH:GSSG ratio, comparable to the AID-TAT samples at 10 μM
- Creatine Kinase (CK) activity in perfusate (Guinea pig hearts; [5]): reduced compared to the AID(S)-TAT peptide; also recorded: reduced in both P7-TAT (1 μM) and P7-TAT (0.5 μM) compared to the P6-TAT peptide
- Lactate Dehydrogenase (LDH) activity in perfusate (Guinea pig hearts; [5]): reduced compared to the AID(S)-TAT peptide
- GSH:GSSG ratio in whole heart tissue (Guinea pig hearts; 1 μM peptide): statistically significant increase in the GSH:GSSG ratio, comparable to the AID-TAT samples at 10 μM
- oxidative stress (CK activity, LDH activity and GSH:GSSG ratio taken together) (Guinea pig hearts; same concentration or lower dosages of P7-TAT versus AID-TAT): more effective than AID-TAT at reducing oxidative stress
- BayK(−) induced increase in flavoprotein oxidation [1]: significantly attenuated increases in flavoprotein oxidation resulting from BayK(−) exposure
- left ventricular posterior wall collagen volume fraction (CVF, %) (cTnI-G203S mice [2]): significantly decreased
- heart weight to body weight ratio (cTnI-G203S mice [3]): significantly decreased heart weight/body weight
